From PubChem BioAssay AID1963450 (Molecular Pharmacology Branch, DTP, NCI, 2024)

Test system: 556581-035-R-J1-PDC complex spheroid growth
Assay: Anticancer human tumor 556581-035-R-J1-PDC patient-derived ovarian carcinoma cell line growth inhibition [Asc]
Settings: for IC50: curve of first compound; for viability, T/C: stronger effect = lower value
Summary of the method: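 Stromal components (HUVEC and hMSC) are co-assembled with the cancer cells into multicellular spheroids. Drugs are then added singly or paired, at concentrations falling by half-log increments from a clinically achievable maximum, capped at 10 microM without known Cmax.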

[1] = second compound 0.1 µM, first compound 0.0316 µM
[2] = second compound 0.1 µM, first compound 0.1 µM
[3] = second compound 0.1 µM, first compound 0.316 µM
[4] = second compound 0.1 µM, first compound 1 µM
[5] = second compound 0.316 µM, first compound 0.0316 µM
[6] = second compound 0.316 µM, first compound 0.1 µM
[7] = second compound 0.316 µM, first compound 0.316 µM
[8] = second compound 0.316 µM, first compound 1 µM
[9] = second compound 1 µM, first compound 0.0316 µM
[10] = second compound 1 µM, first compound 0.1 µM
[11] = second compound 1 µM, first compound 0.316 µM
[12] = second compound 1 µM, first compound 1 µM
[13] = second compound 0.01 µM, first compound 0.00316 µM
[14] = second compound 0.01 µM, first compound 0.01 µM
[15] = second compound 0.01 µM, first compound 0.0316 µM
[16] = second compound 0.01 µM, first compound 0.1 µM
[17] = second compound 0.01 µM, first compound 0.316 µM
[18] = second compound 0.01 µM, first compound 1 µM
[19] = second compound 0.0316 µM, first compound 0.00316 µM
[20] = second compound 0.0316 µM, first compound 0.01 µM
[21] = second compound 0.0316 µM, first compound 0.0316 µM
[22] = second compound 0.0316 µM, first compound 0.1 µM
[23] = second compound 0.0316 µM, first compound 0.316 µM
[24] = second compound 0.0316 µM, first compound 1 µM
[25] = second compound 0.1 µM, first compound 0.00316 µM
[26] = second compound 0.1 µM, first compound 0.01 µM
[27] = second compound 0.316 µM, first compound 0.00316 µM
[28] = second compound 0.316 µM, first compound 0.01 µM
[29] = second compound 1 µM, first compound 0.00316 µM
[30] = second compound 1 µM, first compound 0.01 µM
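Note: spheroids exposed to agents for 7 days before viability read.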

`C=CC(=O)N1CCN(c2nc(=O)n(-c3c(C)ccnc3C(C)C)c3nc(-c4c(O)cccc4F)c(F)cc23)C(C)C1` (stereo not given) + Cc1c(S(C)(=O)=O)c(-c2cc(F)cc(N3CCN(c4ccc(NS(=O)(=O)c5ccc(NC(CCN6CCC(C(=O)OCCCP(=O)(O)O)CC6)CSc6ccccc6)c(S(=O)(=O)C(F)(F)F)c5)cc4)CC3)c2)c(-c2ccc(Cl)cc2)n1C(C)C showed an IC50 (second compound 0.1 µM) greater than 10000 nM, an IC50 (second compound 0.316 µM) greater than 10000 nM and an IC50 (second compound 1 µM) greater than 10000 nM. For the same molecule, the IC50 (second compound 3.16 µM) was greater than 10000 nM, the IC50 (second compound 10 µM) was greater than 10000 nM and the viability, T/C [1] was 86.6%. For the same molecule, the viability, T/C [2] was 83.6%, the viability, T/C [3] was 78.8% and the viability, T/C [4] was 89.6%. It also gave a viability, T/C (second compound 0.1 µM, first compound 3.16 µM) of 80.1%, a viability, T/C (second compound 0.1 µM, first compound 10 µM) of 57.9% and a viability, T/C [5] of 90.8%. It also gave a viability, T/C [6] of 98.3%, a viability, T/C [7] of 79.1% and a viability, T/C [8] of 80%. The viability, T/C (second compound 0.316 µM, first compound 3.16 µM) was 81.8%, the viability, T/C (second compound 0.316 µM, first compound 10 µM) was 64.9% and the viability, T/C [9] was 71.8%. For the same molecule, the viability, T/C [10] was 71.6%, the viability, T/C [11] was 77.6% and the viability, T/C [12] was 71.5%. For the same molecule, the viability, T/C (second compound 1 µM, first compound 3.16 µM) was 73.6%, the viability, T/C (second compound 1 µM, first compound 10 µM) was 58.9% and the viability, T/C (second compound 3.16 µM, first compound 0.0316 µM) was 72.1%. For the same molecule, the viability, T/C (second compound 3.16 µM, first compound 0.1 µM) was 78.1%, the viability, T/C (second compound 3.16 µM, first compound 0.316 µM) was 62.2% and the viability, T/C (second compound 3.16 µM, first compound 1 µM) was 72%. The viability, T/C (second compound 3.16 µM, first compound 3.16 µM) was 66.4%, the viability, T/C (second compound 3.16 µM, first compound 10 µM) was 56.8% and the viability, T/C (second compound 10 µM, first compound 0.0316 µM) was 66.8%. For the same molecule, the viability, T/C (second compound 10 µM, first compound 0.1 µM) was 59.5%, the viability, T/C (second compound 10 µM, first compound 0.316 µM) was 55.9% and the viability, T/C (second compound 10 µM, first compound 1 µM) was 69.5%. For the same molecule, the viability, T/C (second compound 10 µM, first compound 3.16 µM) was 59.6% and the viability, T/C (second compound 10 µM, first compound 10 µM) was 46.4%.
With `O=C(c1ccc(F)c(F)c1Nc1ccc(I)cc1F)N1CC(O)([C@@H]2CCCCN2)C1` + CNC(C)C(=O)NC1CN(S(=O)(=O)c2cccc(S(=O)(=O)N3CCC4CCC(C(=O)NC(c5ccccc5)c5ccccc5)N4C(=O)C(NC(=O)C(C)NC)C3)c2)CCC2CCC(C(=O)NC(c3ccccc3)c3ccccc3)N2C1=O the IC50 (second compound 0.01 µM) was 219 nM, the IC50 (second compound 0.0316 µM) was 187 nM and the IC50 (second compound 0.1 µM) was 92 nM. For the same molecule, the IC50 (second compound 0.316 µM) was 183 nM, the IC50 (second compound 1 µM) was 119 nM and the viability, T/C [13] was 68.6%. The viability, T/C [14] was 71.7%, the viability, T/C [15] was 87.2% and the viability, T/C [16] was 83.6%. The viability, T/C [17] was 37%, the viability, T/C [18] was 10.6% and the viability, T/C [19] was 86.4%. For the same molecule, the viability, T/C [20] was 72.7%, the viability, T/C [21] was 84.2% and the viability, T/C [22] was 71.9%. The viability, T/C [23] was 31.2%, the viability, T/C [24] was 13.3% and the viability, T/C [25] was 68.3%. For the same molecule, the viability, T/C [26] was 64.5%, the viability, T/C [1] was 59.7% and the viability, T/C [2] was 50.8%. It also gave a viability, T/C [3] of 27.1%, a viability, T/C [4] of 12.7% and a viability, T/C [27] of 73.9%. For the same molecule, the viability, T/C [28] was 68.8%, the viability, T/C [5] was 91.7% and the viability, T/C [6] was 66.3%. It also gave a viability, T/C [7] of 33.7%, a viability, T/C [8] of 15.2% and a viability, T/C [29] of 70.9%. For the same molecule, the viability, T/C [30] was 81.4%, the viability, T/C [9] was 74% and the viability, T/C [10] was 53.6%. It also gave a viability, T/C [11] of 24.6% and a viability, T/C [12] of 11.2%.
Molecule `CCN1CCN(Cc2ccc(Nc3ncc(F)c(-c4cc(F)c5nc(C)n(C(C)C)c5c4)n3)nc2)CC1` + CNC(C)C(=O)NC1CN(S(=O)(=O)c2cccc(S(=O)(=O)N3CCC4CCC(C(=O)NC(c5ccccc5)c5ccccc5)N4C(=O)C(NC(=O)C(C)NC)C3)c2)CCC2CCC(C(=O)NC(c3ccccc3)c3ccccc3)N2C1=O has an IC50 (second compound 0.01 µM) greater than 1000 nM, an IC50 (second compound 0.0316 µM) greater than 1000 nM and an IC50 (second compound 0.1 µM) of 339 nM. For the same molecule, the IC50 (second compound 0.316 µM) was 318 nM, the IC50 (second compound 1 µM) was 251 nM and the viability, T/C [13] was 94.7%. The viability, T/C [14] was 97.4%, the viability, T/C [15] was 67.4% and the viability, T/C [16] was 73.6%. It also gave a viability, T/C [17] of 78.5%, a viability, T/C [18] of 72.2% and a viability, T/C [19] of 87.5%. The viability, T/C [20] was 88.7%, the viability, T/C [21] was 83% and the viability, T/C [22] was 85.7%. For the same molecule, the viability, T/C [23] was 75.5%, the viability, T/C [24] was 56.2% and the viability, T/C [25] was 73.6%. It also gave a viability, T/C [26] of 79.3%, a viability, T/C [1] of 78.8% and a viability, T/C [2] of 65.4%. For the same molecule, the viability, T/C [3] was 51.6%, the viability, T/C [4] was 44% and the viability, T/C [27] was 84.3%. It also gave a viability, T/C [28] of 82.8%, a viability, T/C [5] of 86.5% and a viability, T/C [6] of 57.8%. It also gave a viability, T/C [7] of 56%, a viability, T/C [8] of 37.6% and a viability, T/C [29] of 78.2%. The viability, T/C [30] was 82.8%, the viability, T/C [9] was 82.7% and the viability, T/C [10] was 56.2%. For the same molecule, the viability, T/C [11] was 51.7% and the viability, T/C [12] was 33%.
In the case of `COc1c(OCCCN2CCOCC2)ccc2c3n(c(=NC(=O)c4cnc(N)nc4)nc12)CCN3` + CCN1C(C(=O)NC23CCC(C(=O)O)(CC2)CC3)C(c2cccc(Cl)c2F)C2(C(=O)Nc3cc(Cl)ccc32)C12CCCCC2, the IC50 (second compound 0.03 µM) is reported as 58.9 nM, the IC50 (second compound 0.0949 µM) is reported as 42.7 nM and the IC50 (second compound 0.3 µM) is reported as 39.4 nM. It also gave an IC50 (second compound 0.949 µM) of 51.1 nM, an IC50 (second compound 3 µM) of 33.3 nM and a viability, T/C (second compound 0.03 µM, first compound 0.00316 µM) of 71.9%. The viability, T/C (second compound 0.03 µM, first compound 0.01 µM) was 65.5%, the viability, T/C (second compound 0.03 µM, first compound 0.0316 µM) was 59.2% and the viability, T/C (second compound 0.03 µM, first compound 0.1 µM) was 43.3%. For the same molecule, the viability, T/C (second compound 0.03 µM, first compound 0.316 µM) was 20%, the viability, T/C (second compound 0.03 µM, first compound 1 µM) was 13.4% and the viability, T/C (second compound 0.0949 µM, first compound 0.00316 µM) was 78.3%. It also gave a viability, T/C (second compound 0.0949 µM, first compound 0.01 µM) of 70.1%, a viability, T/C (second compound 0.0949 µM, first compound 0.0316 µM) of 51.7% and a viability, T/C (second compound 0.0949 µM, first compound 0.1 µM) of 39.3%. It also gave a viability, T/C (second compound 0.0949 µM, first compound 0.316 µM) of 25.7%, a viability, T/C (second compound 0.0949 µM, first compound 1 µM) of 13.5% and a viability, T/C (second compound 0.3 µM, first compound 0.00316 µM) of 76.7%. For the same molecule, the viability, T/C (second compound 0.3 µM, first compound 0.01 µM) was 70%, the viability, T/C (second compound 0.3 µM, first compound 0.0316 µM) was 50.2% and the viability, T/C (second compound 0.3 µM, first compound 0.1 µM) was 39%. It also gave a viability, T/C (second compound 0.3 µM, first compound 0.316 µM) of 22.5%, a viability, T/C (second compound 0.3 µM, first compound 1 µM) of 15.4% and a viability, T/C (second compound 0.949 µM, first compound 0.00316 µM) of 78.3%. The viability, T/C (second compound 0.949 µM, first compound 0.01 µM) was 75.2%, the viability, T/C (second compound 0.949 µM, first compound 0.0316 µM) was 58.2% and the viability, T/C (second compound 0.949 µM, first compound 0.1 µM) was 40.2%. It also gave a viability, T/C (second compound 0.949 µM, first compound 0.316 µM) of 21.6%, a viability, T/C (second compound 0.949 µM, first compound 1 µM) of 45.8% and a viability, T/C (second compound 3 µM, first compound 0.00316 µM) of 62.2%. It also gave a viability, T/C (second compound 3 µM, first compound 0.01 µM) of 57.9%, a viability, T/C (second compound 3 µM, first compound 0.0316 µM) of 46.7% and a viability, T/C (second compound 3 µM, first compound 0.1 µM) of 45.5%. For the same molecule, the viability, T/C (second compound 3 µM, first compound 0.316 µM) was 27.5% and the viability, T/C (second compound 3 µM, first compound 1 µM) was 14.6%.
